What follows are compounds tested against T1, SARS-CoV-2 3CLpro (3CL protease, MBP-tagged; main protease, Mpro) (Severe acute respiratory syndrome coronavirus 2, UniProt P0DTD1) (assay: fluorogenic protease substrate assay (ex […] / em […] nm)).
T1 construct: gene rep
Assay type: biochemical
Work on `CC(=O)O[C@H]1[C@H](Oc2c(-c3ccc(O)c(O)c3)oc3cc(O)cc(O)c3c2=O)O[C@H](CO[C@@H]2O[C@@H](C)[C@H](O)[C@@H](O)[C@H]2O)[C@@H](O)[C@@H]1O` [2”-O-acetylrutin] yielded an IC50 of 100 nM. In the case of `O=C(O)CC(=O)OC[C@H]1O[C@@H](Oc2c(-c3ccc(O)c(O)c3)oc3cc(O)cc(O)c3c2=O)[C@H](O)[C@@H](O)[C@@H]1O` [quercetin 3-(6”-malonyl-glucoside)], the IC50 is reported as 170 nM. `CC(=O)OC[C@H]1O[C@@H](Oc2c(-c3ccc(O)c(O)c3)oc3cc(O)cc(O)c3c2=O)[C@H](O)[C@@H](O)[C@@H]1O` [quercetin 3-O-(6“-acetyl-glucoside)] showed an IC50 of 120 nM.

Reference: article PMC11940557, “Integration of metabolomics and chemometrics with in-silico and in-vitro approaches to unravel SARS-Cov-2 inhibitors from South African plants” (PLOS One, 2025)
